Reference: patent US9567318B2, “Substituted pyrimidine compounds and uses thereof” (Memorial Sloan-Kettering Cancer Center, priority 2009, dated 2017)

Assays:
[1] = tested on: Hsp70s expressed in the MRC-5 cells; experiment: Hsp70 competition assay using YK55 beads, MRC-5 extracts; type: binding, human; details: MRC-5 normal cell extracts
Protocol: (§1) FIG. 14. YK5 has a higher affinity for tumor Hsp70s and selectively kills cancer cells. (a-c) Cells were treated with the indicated concentrations of inhibitors for the times presented, and metabolically viable cells by Alamar blue uptake as described in Methods (a). Molecular markers of apoptosis (PARP and caspase-3 cleavage) were analyzed in cells treated for 24 h with indicated concentrations of inhibitors, by western blotting (b, c). Morphology of cells treated for 24 h with vehicle or the indicated inhibitors was analyzed by light microscopy (c). (d) Extracts (500 μg) were incubated overnight with beads containing D-biotin (75 μM) or the indicated concentrations of YK55 added to 50 μl streptavidin beads. HS=heat shocked. (e) SKBr3 (200 μg) and MRC-5 (400 μg) extracts and recombinant human Hsp70 (2 μg) were incubated for 3 h with the indicated concentrations with YK5, followed by precipitation of Hsp70 complexes on YK55-beads (50 μM YK55 added to 50 μl streptavidin beads). Data obtained from three independent experiments were graphed (right). Points, mean; bars, s.d.
(§2) In a second experiment, the ability of soluble YK5 to compete YK55-binding to normal and cancer cell Hsp70 species were tested (FIG. 14e). […] Interaction of YK5 was even weaker with recombinant human Hsp70 (FIG. 14e).
(§3) Hsp70 Competition Assay Using the YK55 Beads. […]

MDA-MB-468 cells = experiment: Propidium iodide staining and flow cytometry (cell cycle, hypodiploid population, TNFα); type: cell-based, human; details: YK5 1 μM, TNFα 20 ng/ml
Protocol: FIG. 12. YK5 affects the major hallmarks of cancer: inhibits proliferation and invasiveness and arrests cancer cells in the cell cycle. (a) The indicated cancer cells were incubated with increasing concentrations of inhibitors and growth over 72 h was assessed. Y-axis values below 0% represent cell death of the starting population. Drugs were assayed in triplicate. (b) Mice (n=5) bearing MDA-MB-468 subcutaneously (s.c.) xenografted tumors that reached a volume of approximately 100-200 mm^3, were administered i.t. YK5 or vehicle as described in Methods. Tumor volume (mm^3) was estimated from caliper measurements. (c) Cells were treated for 24 h with indicated concentrations of YK5. DNA content was analyzed by propidium iodide staining and flow cytometry (left), whereas proteins by western blotting (right). (d) Hsp70 client proteins isolated by YK55-beads from SKBr3 and MDA-MB-468 extracts (500 μg) were analyzed by western blotting. Control beads contain D-biotin (100 μM) attached. (e) MDA-MB-231 breast cancer cells were treated for 24 h with YK5 (1 μM) and protein extracts were subjected to immunoblotting (upper) or pre-treated for 24 h with vehicle or YK5, and viable cells able to migrate through Matrigel over a 20 h period were quantified and data graphed (lower). […]
FIG. 13. […] (a,b) Apoptotic cells were quantified by dual acridine orange/ethidium bromide staining as described in Methods. […]

Kasumi-1 cells = experiment: Apoptosis, acridine orange/ethidium bromide, Kasumi-1; type: cell-based, human; details: 10 μM, 24 h
Protocol: FIG. 13. YK5 has a higher apoptotic effect than Hsp90 inhibitors in select tumors. (a-d) Cells were treated with the indicated concentrations of inhibitors for the times presented. (a,b) Apoptotic cells were quantified by dual acridine orange/ethidium bromide staining as described in Methods. (c,d) Molecular markers of apoptosis (PARP cleavage) were analyzed in cells treated for 24 h with indicated concentrations of inhibitors (c) or for the indicated times with the indicated concentration of inhibitors (d) by western blotting. (e) MDAMB-468 cells were treated with vehicle, TNFα (20 ng/ml), YK5 (1 μM), pretreated with YK5 for 2 h before TNFα or co-treated, and cells were lysed for western blot analysis (left), or cell death was quantified by analyzing the hypodiploid population upon propidium iodine staining (right). […]
To determine whether cell death by YK5 was attributable to apoptosis, cells were treated with YK5 and effects on morphology, as well as on several effectors and mediators of apoptosis were analyzed (FIG. 13). To quantify the number of cells undergoing apoptosis, cells were stained with acridine orange/ethidium bromide (AO/EB) and analyzed under a fluorescence microscope for the percentage of viable, apoptotic (early and late) and necrotic cells. […]
Apoptosis-Acridine Orange/Ethidium Bromide. […] Percentage of apoptotic cells was determined from 200-300 cells counted in each group.

[2] = tested on: Hsp70 species from SKBr3 cancer cell extracts; experiment: Hsp70 competition assay using YK55 beads, SKBr3 extracts; type: binding, human
Protocol: as §1, §2, §3

Structure (SMILES): C=CC(=O)Nc1cc(N)nc(Sc2c(OC)nc(N3CCN(C)CC3)nc2OC)n1 [YK5, N-(6-amino-2-(4,6-dimethoxy-2-(4-methylpiperazin-1-yl)pyrimidin-5-ylthio)pyrimidin-4-yl)acrylamide]
- concentration necessary to observe displacement of Hsp70s from YK55-beads [1]: exceeded 200 μM
- apoptotic effect of TNFα (MDA-MB-468 cells): increased the apoptotic effect of TNFα
- cells undergoing apoptosis (Kasumi-1 cells): 70%
- concentration competing binding of YK55-beads to Hsp70 [2]: low micromolar concentrations
